Test results published in PubChem BioAssay (NCI).
Where “and” joins values, the source holds several entries; their conditions need not be identical. Identical values can stand only once.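 Dose response: 5 concentrations. Exposure: 48 h. Format: 96-well plates. Endpoint: linear interpolation; highest concentration if not reached. At the GI50, growth is halved. The concentration for full growth arrest is given as TGI.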

Legend:
Assay in all cases: NCI-60 cell line screen, 48 h
BT-549 breast = system: BT-549 breast
KM12 colon = system: KM12 colon
MDA-MB-231 breast = system: MDA-MB-231 breast
NCI-H23 lung = system: NCI-H23 lung
NCI-H460 lung = system: NCI-H460 lung
OVCAR-3 ovarian = system: OVCAR-3 ovarian
SK-MEL-2 melanoma = system: SK-MEL-2 melanoma
SK-MEL-5 melanoma = system: SK-MEL-5 melanoma
SNB-75 CNS = system: SNB-75 CNS
TK-10 renal = system: TK-10 renal

COc1ccc(-n2c(C)cc(-c3ccccc3)c2C)cc1
GI50 (BT-549 breast): 2.63 µM
TGI (BT-549 breast): 9.98 µM
GI50 (KM12 colon): 2.85 µM
TGI (KM12 colon): 35.3 µM
GI50 (MDA-MB-231 breast): 1.56 µM
TGI (MDA-MB-231 breast): 3.66 µM
GI50 (NCI-H23 lung): 2.16 µM
TGI (NCI-H23 lung): 16.2 µM
GI50 (NCI-H460 lung): 3.13 µM
TGI (NCI-H460 lung): 18.9 µM
GI50 (OVCAR-3 ovarian): 2.61 µM
TGI (OVCAR-3 ovarian): 10.7 µM
GI50 (SK-MEL-2 melanoma): 1.7 µM
TGI (SK-MEL-2 melanoma): 3.93 µM
GI50 (SK-MEL-5 melanoma): 1.77 µM
TGI (SK-MEL-5 melanoma): 4.86 µM
GI50 (SNB-75 CNS): 3.37 µM
TGI (SNB-75 CNS): > 100 µM
GI50 (TK-10 renal): 3.28 µM
TGI (TK-10 renal): 16.5 µM

COc1cc(OC)c(/C=C/c2c3ccccc3cc[n+]2C)c(OC)c1
GI50 (BT-549 breast): 1.58 µM
TGI (BT-549 breast): 21.8 µM
GI50 (KM12 colon): 0.673 µM
TGI (KM12 colon): 6.85 µM
GI50 (MDA-MB-231 breast): 3.46 µM
TGI (MDA-MB-231 breast): 31.4 µM
GI50 (NCI-H23 lung): 1.29 µM
TGI (NCI-H23 lung): 25.8 µM
GI50 (NCI-H460 lung): 1.82 µM
TGI (NCI-H460 lung): 8.83 µM
GI50 (OVCAR-3 ovarian): 1.23 µM
TGI (OVCAR-3 ovarian): 9.78 µM
GI50 (SK-MEL-2 melanoma): 2.64 µM
TGI (SK-MEL-2 melanoma): 6.3 µM
GI50 (SK-MEL-5 melanoma): 0.642 µM
TGI (SK-MEL-5 melanoma): 2.21 µM
GI50 (SNB-75 CNS): 1.27 µM
TGI (SNB-75 CNS): 8.01 µM
GI50 (TK-10 renal): 3.27 µM
TGI (TK-10 renal): 23.1 µM

c1ccc2c(c1)c1c(c3ccccc32)CN2CCCC2C1 (centres undefined)
TGI (BT-549 breast): 53.9 µM
TGI (KM12 colon): 15.7 µM
TGI (MDA-MB-231 breast): 32.3 µM
TGI (NCI-H23 lung): 10.3 µM
TGI (NCI-H460 lung): > 100 µM
TGI (OVCAR-3 ovarian): 22.9 µM
TGI (SK-MEL-2 melanoma): 9.1 µM
TGI (SK-MEL-5 melanoma): 11.2 µM
TGI (SNB-75 CNS): 35.3 µM
TGI (TK-10 renal): > 90.8 µM

COc1ccc(O)c(C(=O)c2ccc(C(=O)N[C@H]3CCCNC[C@@H]3NC(=O)c3ccncc3)cc2)c1F
GI50 (BT-549 breast): 1.27 µM
TGI (BT-549 breast): 13.7 µM
GI50 (KM12 colon): 3.1 µM
TGI (KM12 colon): > 16.5 µM
GI50 (MDA-MB-231 breast): > 25 µM
TGI (MDA-MB-231 breast): > 25 µM
GI50 (NCI-H23 lung): 2.63 µM
TGI (NCI-H23 lung): > 25 µM
GI50 (NCI-H460 lung): 10.5 µM
TGI (NCI-H460 lung): > 25 µM
GI50 (OVCAR-3 ovarian): 4.3 µM
TGI (OVCAR-3 ovarian): > 23 µM
GI50 (SK-MEL-2 melanoma): 4.2 µM
TGI (SK-MEL-2 melanoma): > 22.4 µM
GI50 (SK-MEL-5 melanoma): 5.5 µM
TGI (SK-MEL-5 melanoma): > 17.8 µM
GI50 (SNB-75 CNS): 0.0135 µM
GI50 (TK-10 renal): 0.684 µM
TGI (TK-10 renal): > 25 µM

c1ccc2nc3c(nc2c1)sc1ccccc13
TGI (BT-549 breast): > 100 µM
TGI (KM12 colon): > 100 µM
TGI (MDA-MB-231 breast): > 100 µM
TGI (NCI-H23 lung): 71.1 µM
TGI (NCI-H460 lung): 43.6 µM
TGI (OVCAR-3 ovarian): > 100 µM
TGI (SK-MEL-2 melanoma): > 100 µM
TGI (SK-MEL-5 melanoma): > 100 µM
TGI (SNB-75 CNS): 62.8 µM
TGI (TK-10 renal): 39.3 µM

CC(C)(S)C(N)C(=O)O (centres undefined)
GI50 (BT-549 breast): 1570 µM
TGI (BT-549 breast): 4110 µM and > 100 µM
GI50 (KM12 colon): 1470 µM
TGI (KM12 colon): 4710 µM and > 100 µM
GI50 (MDA-MB-231 breast): 2660 µM
TGI (MDA-MB-231 breast): > 5000 µM
GI50 (NCI-H23 lung): 1510 µM
TGI (NCI-H23 lung): > 5000 µM
GI50 (NCI-H460 lung): 937 µM
TGI (NCI-H460 lung): 2730 µM and > 100 µM
GI50 (OVCAR-3 ovarian): 1250 µM
TGI (OVCAR-3 ovarian): 3990 µM and > 100 µM
GI50 (SK-MEL-2 melanoma): 2390 µM
TGI (SK-MEL-2 melanoma): > 5000 µM
GI50 (SK-MEL-5 melanoma): 895 µM
TGI (SK-MEL-5 melanoma): 2390 µM and > 100 µM
GI50 (SNB-75 CNS): > 5000 µM
TGI (SNB-75 CNS): > 5000 µM
GI50 (TK-10 renal): 2610 µM
TGI (TK-10 renal): > 5000 µM

O=C(Nc1ccc(-n2ccc3c(NC(=O)c4ccccc4)nccc32)cc1)Nc1ccc(Cl)c(Cl)c1
GI50 (BT-549 breast): 3.08 µM
TGI (BT-549 breast): 17.9 µM
GI50 (KM12 colon): 0.985 µM
TGI (KM12 colon): 2.5 µM
GI50 (MDA-MB-231 breast): 1.23 µM
TGI (MDA-MB-231 breast): 2.82 µM
GI50 (NCI-H23 lung): 5.2 µM
TGI (NCI-H23 lung): 28.6 µM
GI50 (NCI-H460 lung): 0.358 µM
TGI (NCI-H460 lung): 1.78 µM
GI50 (OVCAR-3 ovarian): 1.34 µM
TGI (OVCAR-3 ovarian): 2.75 µM
GI50 (SK-MEL-2 melanoma): 1.98 µM
TGI (SK-MEL-2 melanoma): 4.87 µM
GI50 (SK-MEL-5 melanoma): 0.748 µM
TGI (SK-MEL-5 melanoma): 2.2 µM
GI50 (SNB-75 CNS): 0.489 µM
TGI (SNB-75 CNS): 2.34 µM
GI50 (TK-10 renal): 1.82 µM
TGI (TK-10 renal): 5.29 µM

CCCCCOc1ccc(/C=N/Nc2cc(C)nc3ccc(Br)cc23)cc1
GI50 (BT-549 breast): 1.77 µM
TGI (BT-549 breast): 3.43 µM
GI50 (KM12 colon): 1.74 µM
TGI (KM12 colon): 3.19 µM
GI50 (MDA-MB-231 breast): 1.77 µM
TGI (MDA-MB-231 breast): 3.41 µM
GI50 (NCI-H23 lung): 1.85 µM
TGI (NCI-H23 lung): 3.82 µM
GI50 (NCI-H460 lung): 1.94 µM
TGI (NCI-H460 lung): 3.7 µM
GI50 (OVCAR-3 ovarian): 1.92 µM
TGI (OVCAR-3 ovarian): 3.37 µM
GI50 (SK-MEL-2 melanoma): 1.98 µM
TGI (SK-MEL-2 melanoma): 3.91 µM
GI50 (SK-MEL-5 melanoma): 1.74 µM
TGI (SK-MEL-5 melanoma): 3.16 µM
GI50 (SNB-75 CNS): 1.77 µM
TGI (SNB-75 CNS): 3.39 µM
GI50 (TK-10 renal): 1.87 µM
TGI (TK-10 renal): 3.42 µM

CCCOc1ccc2sc(NC(=O)OC)nc2c1
GI50 (BT-549 breast): 3.81 µM
TGI (BT-549 breast): > 100 µM
GI50 (KM12 colon): 0.627 µM
TGI (KM12 colon): > 100 µM
GI50 (MDA-MB-231 breast): > 100 µM
TGI (MDA-MB-231 breast): > 100 µM
GI50 (NCI-H23 lung): 5.77 µM
TGI (NCI-H23 lung): > 100 µM
GI50 (NCI-H460 lung): 3.11 µM
TGI (NCI-H460 lung): > 100 µM
GI50 (OVCAR-3 ovarian): 2.27 µM
TGI (OVCAR-3 ovarian): 19.9 µM
GI50 (SK-MEL-2 melanoma): 2.05 µM
TGI (SK-MEL-2 melanoma): > 100 µM
GI50 (SK-MEL-5 melanoma): 1.12 µM
TGI (SK-MEL-5 melanoma): > 100 µM
GI50 (SNB-75 CNS): 2.58 µM
TGI (SNB-75 CNS): > 100 µM
GI50 (TK-10 renal): > 24.5 µM
TGI (TK-10 renal): > 100 µM

OCc1ccn2c1[C@@H](O)CC2
TGI (BT-549 breast): > 100 µM
TGI (KM12 colon): > 100 µM
TGI (MDA-MB-231 breast): > 100 µM
TGI (NCI-H23 lung): > 100 µM
TGI (NCI-H460 lung): > 100 µM
TGI (OVCAR-3 ovarian): > 100 µM
TGI (SK-MEL-2 melanoma): > 100 µM
TGI (SK-MEL-5 melanoma): > 100 µM
TGI (SNB-75 CNS): > 100 µM
TGI (TK-10 renal): > 100 µM

O=C(O)c1ccc(OCc2ccccc2)c(Cl)c1
TGI (BT-549 breast): > 100 µM
TGI (KM12 colon): > 100 µM
TGI (MDA-MB-231 breast): > 100 µM
TGI (NCI-H23 lung): > 100 µM
TGI (NCI-H460 lung): > 100 µM
TGI (OVCAR-3 ovarian): > 100 µM
TGI (SK-MEL-2 melanoma): > 100 µM
TGI (SK-MEL-5 melanoma): > 100 µM
TGI (SNB-75 CNS): > 100 µM
TGI (TK-10 renal): > 100 µM

N#CC1=C(N)Oc2cc(O)ccc2C1c1cccc2ccccc12 (centres undefined)
GI50 (BT-549 breast): 7.52 µM
TGI (BT-549 breast): 29.6 µM
GI50 (KM12 colon): 6.68 µM
TGI (KM12 colon): > 100 µM
GI50 (MDA-MB-231 breast): 11.8 µM
TGI (MDA-MB-231 breast): 30 µM
GI50 (NCI-H23 lung): 10.2 µM
TGI (NCI-H23 lung): 22.6 µM
GI50 (NCI-H460 lung): 12.4 µM
TGI (NCI-H460 lung): 32.5 µM
GI50 (OVCAR-3 ovarian): 4.07 µM
TGI (OVCAR-3 ovarian): 16.6 µM
GI50 (SK-MEL-2 melanoma): 11.7 µM
TGI (SK-MEL-2 melanoma): 24.3 µM
GI50 (SK-MEL-5 melanoma): 4.83 µM
TGI (SK-MEL-5 melanoma): 19.4 µM
GI50 (SNB-75 CNS): 14.1 µM
TGI (SNB-75 CNS): 32.9 µM
GI50 (TK-10 renal): 15.6 µM
TGI (TK-10 renal): 45.6 µM

Cc1cc(C)c(/C=C2\C(=O)Nc3ccc(NC(=O)CCCCCCC(=O)NO)cc32)[nH]1
GI50 (BT-549 breast): 4.43 µM
TGI (BT-549 breast): > 100 µM
GI50 (KM12 colon): 7.2 µM
TGI (KM12 colon): > 100 µM
GI50 (MDA-MB-231 breast): 1.37 µM
TGI (MDA-MB-231 breast): 60 µM
GI50 (NCI-H23 lung): 3.79 µM
TGI (NCI-H23 lung): > 100 µM
GI50 (NCI-H460 lung): > 50.6 µM
TGI (NCI-H460 lung): > 100 µM
GI50 (OVCAR-3 ovarian): 0.882 µM
TGI (OVCAR-3 ovarian): > 78.2 µM
GI50 (SK-MEL-2 melanoma): 1.89 µM
TGI (SK-MEL-2 melanoma): 49.8 µM
GI50 (SK-MEL-5 melanoma): 0.335 µM
TGI (SK-MEL-5 melanoma): 14.7 µM
GI50 (SNB-75 CNS): 0.227 µM
TGI (SNB-75 CNS): > 100 µM
GI50 (TK-10 renal): 3.1 µM
TGI (TK-10 renal): > 100 µM
